This passage reports % of control, % of inhibition and IC50 results from ChEMBL document CHEMBL5465560, “Selectivity Literature for EUbOPEN Chemogenomic Library” (2024).

Test [1] concerns Epidermal growth factor receptor (Homo sapiens), P00533 [G719S]. As to conditions: at 10 µM.
Test [2] addresses T1, Mitogen-activated protein kinase kinase kinase 12 (Homo sapiens) (UniProt Q12852).
T1 sequence (whole entry): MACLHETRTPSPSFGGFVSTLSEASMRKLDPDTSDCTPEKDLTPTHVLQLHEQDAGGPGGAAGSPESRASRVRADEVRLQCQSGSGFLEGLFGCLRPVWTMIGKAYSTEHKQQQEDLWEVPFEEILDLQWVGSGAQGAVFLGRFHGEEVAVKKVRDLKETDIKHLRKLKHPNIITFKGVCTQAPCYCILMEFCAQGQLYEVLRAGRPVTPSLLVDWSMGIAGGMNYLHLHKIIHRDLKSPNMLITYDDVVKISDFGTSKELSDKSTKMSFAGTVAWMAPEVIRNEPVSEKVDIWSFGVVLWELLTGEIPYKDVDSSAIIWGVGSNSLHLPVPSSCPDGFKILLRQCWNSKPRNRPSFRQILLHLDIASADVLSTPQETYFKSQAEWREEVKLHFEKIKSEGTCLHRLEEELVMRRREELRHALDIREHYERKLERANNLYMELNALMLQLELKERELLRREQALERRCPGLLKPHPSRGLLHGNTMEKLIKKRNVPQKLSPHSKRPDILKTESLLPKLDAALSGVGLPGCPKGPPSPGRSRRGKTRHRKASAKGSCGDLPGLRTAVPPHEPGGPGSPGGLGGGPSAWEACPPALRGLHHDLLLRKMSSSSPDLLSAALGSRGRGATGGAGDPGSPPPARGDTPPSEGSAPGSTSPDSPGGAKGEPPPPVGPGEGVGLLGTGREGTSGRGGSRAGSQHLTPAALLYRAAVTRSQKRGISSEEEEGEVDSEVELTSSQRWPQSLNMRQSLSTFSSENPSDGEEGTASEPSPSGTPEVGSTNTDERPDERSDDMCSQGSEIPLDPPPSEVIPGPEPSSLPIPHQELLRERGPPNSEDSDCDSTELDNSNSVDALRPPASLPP
The following applies: at 10 µM.

The target in test [3] is T2, Serine/threonine-protein kinase TBK1 (Homo sapiens) (UniProt Q9UHD2).
T2 sequence (whole entry): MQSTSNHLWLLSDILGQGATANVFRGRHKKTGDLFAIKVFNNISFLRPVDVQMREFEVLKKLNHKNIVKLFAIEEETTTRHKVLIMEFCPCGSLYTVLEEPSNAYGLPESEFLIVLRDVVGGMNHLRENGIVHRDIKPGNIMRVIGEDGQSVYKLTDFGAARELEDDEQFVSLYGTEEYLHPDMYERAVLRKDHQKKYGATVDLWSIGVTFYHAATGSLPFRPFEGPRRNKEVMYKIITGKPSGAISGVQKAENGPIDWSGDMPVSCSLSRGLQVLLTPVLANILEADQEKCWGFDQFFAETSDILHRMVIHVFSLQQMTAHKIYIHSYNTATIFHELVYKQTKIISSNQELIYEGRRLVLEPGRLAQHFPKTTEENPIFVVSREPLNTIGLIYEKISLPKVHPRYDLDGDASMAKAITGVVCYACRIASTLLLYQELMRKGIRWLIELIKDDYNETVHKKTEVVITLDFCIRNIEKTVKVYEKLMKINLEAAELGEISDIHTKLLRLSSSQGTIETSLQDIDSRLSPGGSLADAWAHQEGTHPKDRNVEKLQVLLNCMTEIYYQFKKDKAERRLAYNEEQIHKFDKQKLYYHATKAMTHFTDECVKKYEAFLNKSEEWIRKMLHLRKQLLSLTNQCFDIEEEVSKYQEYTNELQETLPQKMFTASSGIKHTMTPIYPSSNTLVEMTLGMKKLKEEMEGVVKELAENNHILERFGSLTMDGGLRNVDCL
In words: Selectivity interaction (ActivX KiNativ screen (kinase selectivity in THP-1 cell lysates)) EUB0000639a TBK1. Format: subcellular. The following applies: lysate.

The target of test [4] is Dual specificity tyrosine-phosphorylation-regulated kinase 1A (Homo sapiens, UniProt Q13627). As to the kind of experiment: Selectivity interaction (Kinase panel (Invitrogen)) EUB0000639a DYRK1A. As to conditions: at 200 nM.
In test [5] the test system is Tyrosine-protein kinase ABL1 (Homo sapiens), P00519 [Q252H]. In words: Selectivity interaction (KinomeScan (DiscoverX)) EUB0000045b ABL1. The following applies: at 10 µM.
Test [6] concerns the target Mitogen-activated protein kinase kinase kinase 9 (Homo sapiens) (UniProt P80192). As to the kind of experiment: Selectivity interaction (Kinase panel (literature)) EUB0001199aCl MAP3K9. As to conditions: at 1 µM.
For test [7], the target named is T3, Tyrosine-protein kinase Tec (Homo sapiens) (UniProt P42680).
T3 sequence (whole entry): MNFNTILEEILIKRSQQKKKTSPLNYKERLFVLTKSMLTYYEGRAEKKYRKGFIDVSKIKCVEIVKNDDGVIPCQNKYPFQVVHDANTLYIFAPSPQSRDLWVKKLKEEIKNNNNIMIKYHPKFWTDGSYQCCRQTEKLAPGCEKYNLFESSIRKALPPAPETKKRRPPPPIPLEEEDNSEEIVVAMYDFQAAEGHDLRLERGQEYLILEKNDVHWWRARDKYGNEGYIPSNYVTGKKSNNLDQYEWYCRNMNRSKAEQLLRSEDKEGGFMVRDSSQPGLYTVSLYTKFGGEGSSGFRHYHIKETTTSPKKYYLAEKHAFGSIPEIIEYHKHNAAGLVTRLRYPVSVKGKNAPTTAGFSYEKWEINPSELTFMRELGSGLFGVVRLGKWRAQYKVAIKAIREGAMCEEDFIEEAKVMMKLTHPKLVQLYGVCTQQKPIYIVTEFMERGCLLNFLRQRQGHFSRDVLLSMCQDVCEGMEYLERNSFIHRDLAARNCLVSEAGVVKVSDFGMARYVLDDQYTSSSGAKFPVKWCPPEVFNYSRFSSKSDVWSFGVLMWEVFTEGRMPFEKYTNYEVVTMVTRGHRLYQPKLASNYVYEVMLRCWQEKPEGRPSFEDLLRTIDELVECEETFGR
In words: Selectivity interaction (ProQinase) EUB0000171b TEC.

The target in test [8] is Serine/threonine-protein kinase PLK3 (Homo sapiens, UniProt Q9H4B4). In words: Selectivity interaction (KinomeScan (DiscoverX)) EUB0001049a PLK3. The following applies: at 1 µM.
Test [9] deals with Hepatocyte growth factor receptor (Homo sapiens, UniProt P08581). As to the kind of experiment: Selectivity interaction (Kinase panel (33PanQinase(R) Activity Assay)) EUB0000877a MET.
Sequence of Hepatocyte growth factor receptor (P08581 whole entry): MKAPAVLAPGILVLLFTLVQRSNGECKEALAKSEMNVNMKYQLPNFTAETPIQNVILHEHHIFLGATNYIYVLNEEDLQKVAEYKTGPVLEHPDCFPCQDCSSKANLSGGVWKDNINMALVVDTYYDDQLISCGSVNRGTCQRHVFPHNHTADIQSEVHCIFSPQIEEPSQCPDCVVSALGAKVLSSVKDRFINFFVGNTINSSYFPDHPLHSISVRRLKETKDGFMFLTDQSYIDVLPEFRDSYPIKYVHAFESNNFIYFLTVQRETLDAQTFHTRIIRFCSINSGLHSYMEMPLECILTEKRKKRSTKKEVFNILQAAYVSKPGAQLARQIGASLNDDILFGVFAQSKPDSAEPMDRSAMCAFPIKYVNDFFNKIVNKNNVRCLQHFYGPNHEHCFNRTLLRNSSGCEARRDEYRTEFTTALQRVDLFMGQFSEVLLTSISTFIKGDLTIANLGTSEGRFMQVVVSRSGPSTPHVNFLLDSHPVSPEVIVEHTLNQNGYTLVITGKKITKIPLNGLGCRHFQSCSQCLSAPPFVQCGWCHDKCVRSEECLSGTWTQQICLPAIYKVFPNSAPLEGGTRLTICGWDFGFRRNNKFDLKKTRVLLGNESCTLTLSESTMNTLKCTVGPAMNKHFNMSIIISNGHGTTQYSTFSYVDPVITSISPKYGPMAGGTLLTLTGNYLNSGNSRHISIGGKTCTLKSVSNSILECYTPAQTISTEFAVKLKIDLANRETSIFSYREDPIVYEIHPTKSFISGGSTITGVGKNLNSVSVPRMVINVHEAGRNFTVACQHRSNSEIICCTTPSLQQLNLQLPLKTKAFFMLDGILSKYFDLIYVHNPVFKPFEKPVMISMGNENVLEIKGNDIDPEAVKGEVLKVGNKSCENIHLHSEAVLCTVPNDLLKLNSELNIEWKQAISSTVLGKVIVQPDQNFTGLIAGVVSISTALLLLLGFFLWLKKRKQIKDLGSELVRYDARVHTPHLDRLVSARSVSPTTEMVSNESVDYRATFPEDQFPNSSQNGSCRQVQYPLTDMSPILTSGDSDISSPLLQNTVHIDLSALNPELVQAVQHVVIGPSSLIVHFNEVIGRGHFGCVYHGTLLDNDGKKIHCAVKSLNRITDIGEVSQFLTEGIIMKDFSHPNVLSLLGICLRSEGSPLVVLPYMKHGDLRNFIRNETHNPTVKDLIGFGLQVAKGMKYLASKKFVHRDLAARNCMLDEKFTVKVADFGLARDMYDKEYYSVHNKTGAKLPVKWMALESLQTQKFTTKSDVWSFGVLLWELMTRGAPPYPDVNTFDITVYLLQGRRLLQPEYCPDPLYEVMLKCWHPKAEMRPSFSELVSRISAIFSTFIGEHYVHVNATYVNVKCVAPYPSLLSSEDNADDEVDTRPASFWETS
Test [10] concerns the target Protein-tyrosine kinase 6 (Homo sapiens, UniProt Q13882). As to the kind of experiment: Selectivity interaction (KinomeScan (DiscoverX)) EUB0000655a PTK6. The following applies: at 10 µM.
Test [11] has as its target Myosin light chain kinase, smooth muscle (Homo sapiens, UniProt Q15746). As to the kind of experiment: Selectivity interaction (KinomeScan (DiscoverX)) EUB0001079a MYLK. The following applies: at 1 µM.
Test [12] has as its target Ribosomal protein S6 kinase alpha-3 (Homo sapiens, UniProt P51812). In words: Selectivity interaction (KinomeScan (DiscoverX)) EUB0001079a RPS6KA3. The following applies: at 1 µM.

Sequence of Epidermal growth factor receptor (Homo sapiens), P00533 [G719S] (P00533 whole entry G719S): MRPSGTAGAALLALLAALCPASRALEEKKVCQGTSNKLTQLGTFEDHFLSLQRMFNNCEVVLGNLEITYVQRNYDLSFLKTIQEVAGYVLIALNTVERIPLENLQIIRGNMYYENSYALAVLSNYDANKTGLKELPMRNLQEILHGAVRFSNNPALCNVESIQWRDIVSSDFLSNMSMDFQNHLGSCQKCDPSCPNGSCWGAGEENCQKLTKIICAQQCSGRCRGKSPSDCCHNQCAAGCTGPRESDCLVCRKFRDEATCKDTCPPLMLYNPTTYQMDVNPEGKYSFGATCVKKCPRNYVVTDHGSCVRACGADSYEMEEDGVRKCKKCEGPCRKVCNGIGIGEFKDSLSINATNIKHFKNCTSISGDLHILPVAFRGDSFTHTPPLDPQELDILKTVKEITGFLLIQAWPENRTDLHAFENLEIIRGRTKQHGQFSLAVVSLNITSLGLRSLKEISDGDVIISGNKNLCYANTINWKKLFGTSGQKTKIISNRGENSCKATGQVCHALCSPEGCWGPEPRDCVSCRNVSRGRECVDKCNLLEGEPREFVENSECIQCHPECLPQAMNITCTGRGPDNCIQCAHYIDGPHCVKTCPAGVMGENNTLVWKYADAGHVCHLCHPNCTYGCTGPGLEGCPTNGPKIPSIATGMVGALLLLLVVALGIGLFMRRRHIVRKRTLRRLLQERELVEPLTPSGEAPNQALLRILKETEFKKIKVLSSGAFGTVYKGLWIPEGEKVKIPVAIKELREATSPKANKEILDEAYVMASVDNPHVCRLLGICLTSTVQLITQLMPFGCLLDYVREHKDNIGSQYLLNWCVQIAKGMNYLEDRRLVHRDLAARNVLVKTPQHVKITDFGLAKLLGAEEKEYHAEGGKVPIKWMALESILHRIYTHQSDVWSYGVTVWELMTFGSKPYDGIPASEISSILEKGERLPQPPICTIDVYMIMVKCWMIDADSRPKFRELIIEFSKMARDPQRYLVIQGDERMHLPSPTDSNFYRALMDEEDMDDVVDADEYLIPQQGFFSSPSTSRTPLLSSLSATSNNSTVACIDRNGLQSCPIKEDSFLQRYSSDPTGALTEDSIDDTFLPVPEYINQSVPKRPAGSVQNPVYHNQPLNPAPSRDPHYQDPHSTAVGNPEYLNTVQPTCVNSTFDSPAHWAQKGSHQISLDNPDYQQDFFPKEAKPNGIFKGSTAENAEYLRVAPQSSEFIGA
Sequence of Mitogen-activated protein kinase kinase kinase 9 (Homo sapiens) (P80192 whole entry, looked up): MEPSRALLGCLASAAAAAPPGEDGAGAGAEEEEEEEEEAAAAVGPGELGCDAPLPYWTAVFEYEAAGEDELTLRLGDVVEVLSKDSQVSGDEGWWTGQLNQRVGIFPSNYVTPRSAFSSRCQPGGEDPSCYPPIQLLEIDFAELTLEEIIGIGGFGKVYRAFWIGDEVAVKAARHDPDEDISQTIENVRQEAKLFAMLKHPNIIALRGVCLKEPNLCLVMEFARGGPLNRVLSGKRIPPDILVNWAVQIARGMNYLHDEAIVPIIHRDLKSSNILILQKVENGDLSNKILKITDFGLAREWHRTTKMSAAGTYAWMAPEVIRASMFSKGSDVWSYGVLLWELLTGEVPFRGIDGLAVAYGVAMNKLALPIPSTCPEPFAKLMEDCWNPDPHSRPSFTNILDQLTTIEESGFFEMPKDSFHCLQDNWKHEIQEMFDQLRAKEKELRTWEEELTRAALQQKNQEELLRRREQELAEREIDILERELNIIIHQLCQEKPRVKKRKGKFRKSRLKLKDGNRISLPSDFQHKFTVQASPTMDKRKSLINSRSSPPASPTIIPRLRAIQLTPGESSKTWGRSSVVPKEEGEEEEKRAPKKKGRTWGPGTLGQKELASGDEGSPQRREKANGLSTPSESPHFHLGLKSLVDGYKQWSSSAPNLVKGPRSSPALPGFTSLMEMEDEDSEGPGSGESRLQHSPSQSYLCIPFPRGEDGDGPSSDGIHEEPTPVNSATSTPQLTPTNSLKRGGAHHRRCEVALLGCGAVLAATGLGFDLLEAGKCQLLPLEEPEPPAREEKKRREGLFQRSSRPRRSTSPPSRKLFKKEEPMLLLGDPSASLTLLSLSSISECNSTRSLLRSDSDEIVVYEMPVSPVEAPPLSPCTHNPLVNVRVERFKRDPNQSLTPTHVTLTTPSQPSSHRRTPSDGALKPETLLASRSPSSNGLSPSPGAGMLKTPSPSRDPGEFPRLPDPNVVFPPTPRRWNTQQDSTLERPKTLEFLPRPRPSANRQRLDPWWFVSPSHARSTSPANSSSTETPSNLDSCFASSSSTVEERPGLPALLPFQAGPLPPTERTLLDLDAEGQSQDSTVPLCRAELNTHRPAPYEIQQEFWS
Sequence of Protein-tyrosine kinase 6 (Q13882 whole entry, looked up): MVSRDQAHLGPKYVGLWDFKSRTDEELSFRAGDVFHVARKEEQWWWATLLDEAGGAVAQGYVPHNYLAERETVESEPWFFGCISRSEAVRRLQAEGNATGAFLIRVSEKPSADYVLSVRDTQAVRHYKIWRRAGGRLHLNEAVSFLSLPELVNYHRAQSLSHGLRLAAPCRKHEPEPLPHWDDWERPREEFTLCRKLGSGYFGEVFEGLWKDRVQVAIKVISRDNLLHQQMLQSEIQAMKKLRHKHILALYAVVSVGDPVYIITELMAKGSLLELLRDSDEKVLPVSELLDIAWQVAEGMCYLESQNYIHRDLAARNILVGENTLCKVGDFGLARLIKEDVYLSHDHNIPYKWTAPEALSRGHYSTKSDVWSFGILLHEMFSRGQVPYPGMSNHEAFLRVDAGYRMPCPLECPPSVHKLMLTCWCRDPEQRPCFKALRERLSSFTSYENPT
Sequence of Ribosomal protein S6 kinase alpha-3 (P51812 whole entry): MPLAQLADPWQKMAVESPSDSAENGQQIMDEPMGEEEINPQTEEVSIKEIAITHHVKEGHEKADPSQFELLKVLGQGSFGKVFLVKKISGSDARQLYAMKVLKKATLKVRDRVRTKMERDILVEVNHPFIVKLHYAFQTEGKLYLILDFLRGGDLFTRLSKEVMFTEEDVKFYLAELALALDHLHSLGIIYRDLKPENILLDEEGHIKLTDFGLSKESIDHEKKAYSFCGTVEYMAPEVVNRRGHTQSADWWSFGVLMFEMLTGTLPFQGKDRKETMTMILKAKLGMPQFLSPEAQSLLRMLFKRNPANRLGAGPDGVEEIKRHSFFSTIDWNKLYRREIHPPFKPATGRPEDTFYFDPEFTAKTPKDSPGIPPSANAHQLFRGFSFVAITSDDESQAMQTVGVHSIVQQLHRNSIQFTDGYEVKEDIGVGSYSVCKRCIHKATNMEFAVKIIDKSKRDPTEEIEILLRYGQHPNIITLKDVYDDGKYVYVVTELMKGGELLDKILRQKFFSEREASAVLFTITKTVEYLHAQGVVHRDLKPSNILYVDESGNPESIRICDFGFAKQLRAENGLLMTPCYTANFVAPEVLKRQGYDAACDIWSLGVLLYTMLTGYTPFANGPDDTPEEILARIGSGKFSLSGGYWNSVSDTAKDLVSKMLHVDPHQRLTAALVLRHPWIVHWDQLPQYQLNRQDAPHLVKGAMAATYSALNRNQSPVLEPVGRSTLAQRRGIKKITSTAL

Consider `COCC(=O)NC/C=C/c1ccc2ncnc(Nc3ccc(Oc4ccc(C)nc4)c(C)c3)c2c1` [CP-724714], for which the % of control in [1] is 0%.

`CCN(CC)CCCCNc1ncc2cc(-c3cc(OC)cc(OC)c3)c(NC(=O)NC(C)(C)C)nc2n1`: the % of control in test [2] came out at 100%.

With `CC[C@@H]1[C@H](F)C(=O)N[C@@H]1COc1nccc2cc(C(N)=O)c(OC)cc12` [ZIMLOVISERTIB], the % of inhibition in test [3] (at 0.01 µM) is -51.9%; in test [3] (at 0.04 µM) it was -22.2%; in [3] (at 0.2 µM) it was -29.9%; in [3] (at 1 µM), 10%; in test [3] (at 5 µM) it was 26.2%; in [4], 17.9%.

In test [5], `C=CC(=O)Nc1cc(-n2c(=O)ccc3cnc4ccc(-c5ccc(NS(C)(=O)=O)cc5)cc4c32)ccc1C` yielded a % of control of 75%.

Take `CN1Cc2nccc(-c3cn(C)nc3-c3ccc(F)cc3)c2C1=O`: the % of inhibition in test [6] was found to be 2%.

Consider `C=CC(=O)Nc1cccc(C(=O)Nc2ccc(Nc3cc(-c4[nH]c(SC)nc4C)ccn3)cc2)c1`, for which the % of control in [7] (at 1 µM) amounted to 99%; in test [7] (at 5 µM), 81%.

Compound `COc1cc(Nc2nc(C)cc(-c3cnn4nc(OC)ccc34)n2)cc(C(F)(F)F)c1` displayed a % of control in test [8] of 72%.

Usually IC50 stands for the concentration that gives 50% inhibition. A high value points to weaker potency. Consider `CCC(=O)N1CC[C@H](Nc2ncnc3c2CN(c2cnc(OC)c(C(F)(F)F)c2)CC3)C1` [LENIOLISIB], for which the IC50 in test [9] was over 10 µM.

With `CN(C)CCOc1ccc(-c2nc(-c3ccncc3)c(-c3ccc4c(c3)CC/C4=N\O)[nH]2)cc1`, the % of control in test [10] is 82%.

Consider `Nc1cnc(N2CCc3cc(S(=O)(=O)Nc4c(F)cc(Cl)cc4F)cc(N4CCCC4=O)c32)nc1` [TP-020n], for which the % of control came out at 91% in test [11] and 100% in test [12].
